EP4772161A1, “SKIN COSMETIC COMPOSITION CONTAINING BOTRYOCOCCENE AS ACTIVE INGREDIENT” (Phycochemy Corporation, priority 2023, dated 2025)

Experiments:
Assay type in all cases: cell-based, human
NHEK cells [1] = test: Cytotoxicity with botryococcene treatment (Neutral Red uptake); conditions: 24 hours
Description: (§1) Normal human epidermal keratinocytes (NHEKs) were cultured in HuMedia-KG2 (KG2) medium containing 10% fetal bovine serum, 1% antibiotic and 1% human epidermal keratinocyte growth supplement, in a 37°C, 5% CO2 incubator.
NHEK cells were seeded on a 96-well plate at a density of 2.5 × 10^4 cells/well in KG2 medium, and incubated for 24 hours. The supernatant was aspirated, the medium was exchanged with HuMedia-KB2 (KB2) medium containing 0, 12.5, 25, 50, 100, 200 and 400 µM botryococcene, and the mixture was incubated for 24 hours. After culturing, the cells were washed with PBS, the medium was exchanged with KB2 medium containing 0.003% Neutral Red, and culturing was carried out for 2 hours. The Neutral Red in the cells was extracted with 1 M HCl in 30% MeOH. The absorbance at 550 nm was measured with a microplate reader.

intracellular ROS = test: Intracellular reactive oxygen species removal (DCFH-DA fluorescence per unit protein); conditions: NHEK cells, botryococcene 25-200 µM for 24 hours
Description: as §1
NHEK cells were seeded on a 96-well plate at a density of 2.5 × 10^4 cells/well in KG2 medium, and incubated for 24 hours. The supernatant was removed, the medium was exchanged with KB2 medium containing 0, 25, 50, 100 and 200 µM botryococcene, and incubation was carried out for 24 hours. After culturing, the cells were washed with PBS, the medium was exchanged with HBSS buffer containing 200 µM H2O2, and culturing was continued for 1 hour. The supernatant was removed and culturing was carried out for 30 minutes in HBSS buffer containing 20 µM DCFH-DA. The fluorescence intensity was measured with a microplate reader ([…]). The cells were then dissolved in 50 µL of PBS containing 0.5% Triton^R X-100, the protein level was quantified, and the fluorescence intensity per unit protein was normalized.

NHEK cells [2] = test: Protection against cytotoxicity induced by H2O2 (Neutral Red uptake); conditions: botryococcene 25-200 µM for 24 hours, then 300 µM H2O2 for 1 hour
Description: as §1
NHEK cells were seeded on a 96-well plate at a density of 2.5 × 10^4 cells/well in KG2 medium, and incubated for 24 hours. The supernatant was aspirated, the medium was exchanged with KB2 medium containing 0, 25, 50, 100 and 200 µM botryococcene, and incubation was carried out for 24 hours. After culturing, the cells were washed for 1 hour with HBSS containing PBS and 300 µM H2O2, and the cells were then incubated for 24 hours in KB2 medium. After incubation, the cells were washed with PBS, the medium was exchanged with KB2 medium containing 0.003% Neutral Red, and culturing was carried out for 2 hours. After culturing, the cells were washed with PBS. The Neutral Red in the cells was extracted with 1 M HCl in 30% MeOH. The absorbance at 550 nm was measured with a microplate reader.

IL-1α = IL-1α production in culture supernatant of NHEK cells, with or without UVB irradiation (ELISA, per unit protein)
Description: as §1
(§2) NHEK cells were seeded on a 96-well plate at a density of 2.5 × 10^4 cells/well in KG2 medium, and incubated for 24 hours. The supernatant was aspirated, the medium was exchanged with KB2 medium containing 0, 25, 50, 100 and 200 µM botryococcene, and culturing was continued for 24 hours, after which the cells were washed with PBS and the medium was exchanged with HBSS. The cells were then irradiated with UVB (280 to 320 nm, 20 mJ/cm^2) and cultured for 24 hours in fresh KB2 medium. The IL-1α and PGE2 expression levels in the culture supernatants were measured using an ELISA measuring kit. The cells were then dissolved in 50 µL of PBS containing 0.5% Triton^R X-100, the protein level was quantified, and the IL-1α and PGE2 production levels per unit protein were calculated.

PGE2 = PGE2 production in culture supernatant of NHEK cells, with or without UVB irradiation (ELISA, per unit protein)
Description: as §1, §2

NHEK cells [3] = test: Fluorescent bead (FluoSpheres) phagocytosis induced by UVB irradiation; conditions: UVB 20 mJ/cm^2
Description: as §1
NHEK cells were seeded on a 96-well plate at a density of 2.5 × 10^4 cells/well in KG2 medium, and incubated for 24 hours. The supernatant was aspirated, the medium was exchanged with KB2 medium containing 0, 25, 50, 100 and 200 µM botryococcene, and culturing was continued for 24 hours, after which the cells were washed with PBS and the medium was replaced with HBSS. The cells were then irradiated with UVB (280 to 320 nm, 20 mJ/cm^2) and cultured for 24 hours in fresh KB2 medium. After replacing the medium with of KB2 medium containing FluoSpheres™ and allowing the cells to stand for 4 hours, they were dissolved with 50 µL of PBS containing 0.5% Triton^R X-100 and the fluorescence of the cell lysate was measured with a microplate reader. The fluorescence of the cell lysate was detected with a fluorescence reader at an excitation/luminous wavelength of 535 nm/590 nm. The cells were then dissolved in 50 µL of PBS containing 0.5% Triton^R X-100, the protein level was quantified, and the fluorescence intensity per unit protein was normalized.

type I collagen = test: Type I collagen production by NHDF cells treated with supernatant (K-CM) of UVB-irradiated NHEK cells (ELISA, per unit protein)
Description: as §1
(§3) Normal human skin fibroblasts (NHDFs) were cultured in DMEM with addition of 10% fetal bovine serum, 1% antibiotic and 1% human epidermal keratinocyte growth supplement, in a 37°C, 5% CO2 incubator.
(§4) NHEK cells were seeded on a 96-well plate at a density of 2.5 × 10^4 cells/well in KG2 medium, and incubated for 24 hours. The supernatant was aspirated, the medium was exchanged with KB2 medium containing 0, 25, 50, 100 and 200 µM botryococcene, and culturing was continued for 24 hours, after which the cells were washed with PBS and the medium was replaced with HBSS. The cells were then irradiated with UVB (280 to 320 nm, 20 mJ/cm^2) and cultured for 24 hours in fresh KB2 medium. After culturing, the supernatant (K-CM) was collected. NHDF cells were seeded on a 96-well plate at a density of 2.0 × 10^4 cells/well in DMEM medium, and incubated for 24 hours. […] The cells were then dissolved in 50 µL of PBS containing 0.5% Triton^R X-100, and the protein level was quantified with a BCA Protein Assay Kit (product of Thermo Fisher Scientific), calculating the type I collagen and MMP-1 production per unit protein.

MMP-1 = MMP-1 production by NHDF cells treated with supernatant (K-CM) of UVB-irradiated NHEK cells (ELISA, per unit protein)
Description: as §1, §3, §4

[4] = botryococcene 200 µM, UVB 20 mJ/cm^2
[5] = botryococcene 25 to 100 µM, UVB 20 mJ/cm^2
[6] = NHDF cells with K-CM of UVB-irradiated NHEK cells pretreated with botryococcene 200 µM
[7] = NHDF cells with K-CM of UVB-irradiated NHEK cells pretreated with botryococcene 25 to 100 µM

## C=C[C@@](C)(/C=C/[C@H](C)CC[C@H](C)C(=C)CC[C@H](C)C(=C)C)CC[C@H](C)C(=C)CC[C@H](C)C(=C)C [botryococcene]
NHEK cells [1]; botryococcene 0 to 200 µM
  cell viability: No change in cell viability was observed
NHEK cells [1]; botryococcene 400 µM
  cell viability: a notable reduction was observed
Intracellular ROS; then 200 µM H2O2 treatment for 1 hour
  intracellular ROS concentration: decrease in a concentration-dependent manner
Intracellular ROS; without H2O2 treatment
  intracellular ROS concentration: decrease in a concentration-dependent manner
NHEK cells [2]
  reduction in cell viability by H2O2 treatment: restored by addition of botryococcene, in a concentration-dependent manner
IL-1α; [4]
  Induction of IL-1α production: not inhibited
IL-1α; [5]
  IL-1α production induced by UVB irradiation: inhibited all of the IL-1α and PGE2 production induced by UVB irradiation in a concentration-dependent manner up to 100 µM
IL-1α; non-UVB-irradiated conditions, botryococcene up to 100 µM
  amount of IL-1α produced: reduced by botryococcene in a concentration-dependent manner up to 100 µM for IL-1α
PGE2; [4]
  Induction of PGE2 production: not inhibited
PGE2; [5]
  PGE2 production induced by UVB irradiation: inhibited all of the IL-1α and PGE2 production induced by UVB irradiation in a concentration-dependent manner up to 100 µM
PGE2; non-UVB-irradiated conditions, botryococcene up to 50 µM
  amount of PGE2 produced: reduced by botryococcene in a concentration-dependent manner
NHEK cells [3]; botryococcene 200 µM
  effect of inhibiting fluorescent bead phagocytosis: less prominent than with 50 µM or 100 µM
NHEK cells [3]; botryococcene 25 to 100 µM
  fluorescent bead phagocytosis by UVB irradiation: inhibited fluorescent bead phagocytosis by UVB irradiation in a concentration-dependent manner up to 100 µM
Type I collagen; [6]
  inhibiting effect on reduction in collagen production: less prominent than with 50 µM or 100 µM
Type I collagen; [7]
  reduction in collagen production: inhibited the reduction in collagen production and acceleration of MMP-1 production in a concentration-dependent manner up to 100 µM
MMP-1; [6]
  inhibiting effect on acceleration of MMP-1 production: less prominent than with 50 µM or 100 µM
MMP-1; [7]
  acceleration of MMP-1 production: inhibited the reduction in collagen production and acceleration of MMP-1 production in a concentration-dependent manner up to 100 µM
